The record followed here is BindingDB's records for patent USRE46792 (Otsuka Pharmaceutical, 2018).

This assay addresses cAMP-specific 3',5'-cyclic phosphodiesterase 4D (Homo sapiens, UniProt Q08499). Briefly: Inhibitory Activity Assay. As for the experimental part: Necessary amounts of test compounds were weighed, and 100% dimethylsulfoxide (DMSO) was added thereto to adjust the concentration to 10 mM. The solutions were stored in a freezer as stock solutions of each test compound. After being thawed when required, the solutions were diluted 20-fold with 100% DMSO to give a 500 μM concentration. Further, 10-fold serial dilutions were made with 100% DMSO to prepare test compounds of different concentrations. 2 μl of solutions containing one of each of the test compound were separately added into 1.2 ml tubes in which 23 μl of 20 mM Tris-HCl (pH 7.4) had been placed beforehand. 25 μl of a PDE4D enzyme solution diluted at an optimal ratio determined in (3) above were added on ice to each of the tubes, and 50 μl of a substrate solution containing 2 μM[3H] cAMP prepared by dilution with a 20 mM Tris-HCl (pH 7.4) containing 10 mM MgCl2 was added thereto. The final DMSO concentration in the reaction liquid was 2%. After mixing, the mixture was incubated for 10 minutes at 30° C. At the completion of the incubation, the tubes were placed in a bath containing boiling water for 3 minutes, and the reaction was stopped. After cooling the tubes in ice, 25 μl solution of 0.2 mg/ml snake venom was added thereto, and after mixing the mixture was incubated for 10 minutes at 30° C. […] 3H radioactivity (cpm) was measured using a TopCount.

cAMP-specific 3',5'-cyclic phosphodiesterase 4D, sequence (Q08499 whole entry): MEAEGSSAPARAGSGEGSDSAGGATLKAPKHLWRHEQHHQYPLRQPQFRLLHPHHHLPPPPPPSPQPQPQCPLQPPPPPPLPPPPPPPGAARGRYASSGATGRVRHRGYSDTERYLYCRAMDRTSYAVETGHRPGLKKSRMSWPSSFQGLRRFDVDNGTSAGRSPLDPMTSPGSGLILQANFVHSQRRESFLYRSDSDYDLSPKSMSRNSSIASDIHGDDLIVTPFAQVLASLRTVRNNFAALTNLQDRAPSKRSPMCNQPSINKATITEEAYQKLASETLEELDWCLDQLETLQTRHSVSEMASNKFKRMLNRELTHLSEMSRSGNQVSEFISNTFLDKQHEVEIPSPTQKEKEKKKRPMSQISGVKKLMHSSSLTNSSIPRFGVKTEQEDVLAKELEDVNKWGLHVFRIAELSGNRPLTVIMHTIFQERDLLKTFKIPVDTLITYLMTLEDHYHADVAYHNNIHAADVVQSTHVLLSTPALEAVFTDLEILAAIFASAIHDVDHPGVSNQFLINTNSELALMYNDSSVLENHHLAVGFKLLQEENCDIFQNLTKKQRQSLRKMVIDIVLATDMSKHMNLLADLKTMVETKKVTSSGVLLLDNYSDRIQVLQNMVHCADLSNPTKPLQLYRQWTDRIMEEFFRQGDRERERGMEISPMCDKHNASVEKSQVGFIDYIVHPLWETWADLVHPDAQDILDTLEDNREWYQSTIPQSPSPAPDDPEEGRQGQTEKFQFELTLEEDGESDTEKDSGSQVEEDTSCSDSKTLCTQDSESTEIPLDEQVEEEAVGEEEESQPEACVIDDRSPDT

Regarding `COc1ccc(-c2nc(CCC(=O)c3ncccc3OC)co2)cc1OCC1CC1` [USRE46792, 126], the 50% inhibitory concentration (IC50) – broadly, the concentration that gives 50% inhibition – was less than 50 nM.
